Test results reported in PubChem BioAssay AID1224920 (Broad Institute, 2016).
Values joined by “and” are separate entries in the source; they are usually repeats but may differ in a detail not shown here. Equal values may be shown once. Active and inactive are the calls of the source.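 Rule for the calls: active = IC50 no higher than ten times the top tested dose; inconclusive = flat fit with 30 to 70% inhibition, or poor fit; inactive = IC50 above ten times the top dose.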

Tested on: Clostridium difficile clinical isolate growth, OD600, 24 h
Assay: growth modulation of Clostridium difficile isolate – OD600, 9-point, retest, dose response (AID 1224920);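 note: inhibitors lower culture turbidity so OD600 falls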

Cc1ccc(-c2ccc([C@H]3[C@@H](CO)N4CCCCN(C(=O)c5ccc(F)cc5)C[C@H]34)cc2)cc1
IC50: 30.7 µM

COc1ccccc1S(=O)(=O)N1[C@@H]2CNC[C@H]1C2c1ccc(/C=C/c2ccccc2)cc1 (some centres not stated)
IC50: 63.2 µM

C[C@@H]1CN([C@@H](C)CO)C(=O)c2ccccc2-c2ccccc2CO[C@H]1CN(C)Cc1ccccc1C(F)(F)F
IC50: > 270 µM (inactive)

CCNC(=O)C[C@@H]1CC[C@H]2[C@@H](COC[C@@H](O)CN2C(=O)Nc2ccc(C(F)(F)F)cc2)O1
IC50: 12.2 µM

CCCC#Cc1ccc([C@@H]2[C@H](CO)N3CCCCN(S(=O)(=O)c4ccccc4C)C[C@@H]23)cc1
IC50: 24 µM

O=C(Nc1cccc(F)c1)N1CCCCN2[C@@H](CO)[C@@H](c3ccc(-c4ccccc4F)cc3)[C@@H]2C1
IC50: 13.1 µM

Cc1cccc(-c2ccc([C@@H]3[C@H]4CN(CCC(F)(F)F)CCCCN4[C@H]3CO)cc2)c1
IC50: 66.4 µM

O=C(Nc1ccc(F)cc1)N1CCCCN2[C@H](CO)[C@H](c3ccc(-c4cccc(F)c4)cc3)[C@H]2C1
IC50: 70.3 µM

COc1cccc(S(=O)(=O)N2[C@@H]3CNC[C@H]2C3c2ccc(/C=C/c3ccccc3)cc2)c1 (some centres not stated)
IC50: 23.9 µM

O=S(=O)(c1ccccc1F)N1C[C@@H]2N[C@H](C1)C2c1ccc(/C=C/c2ccccc2)cc1 (some centres not stated)
IC50: 19.4 µM

Fc1cccc(-c2ccc(C3[C@H]4CNC[C@@H]3N4Cc3ccccc3F)cc2)c1 (some centres not stated)
IC50: 60.5 µM

N#Cc1cccc(-c2ccc(C3[C@@H]4CN(Cc5ccccc5F)C[C@H]3N4)cc2)c1 (some centres not stated)
IC50: 28.6 µM and 26.1 µM

OC[C@H]1[C@@H](c2ccc(-c3cccc(F)c3)cc2)[C@@H]2CN(CCC(F)(F)F)CCCCN12
IC50: 53.8 µM

COc1ccccc1CN1CC[C@@H]2[C@H](CO)Nc3ccc(C#Cc4ccccc4)cc3[C@@H]21
IC50: 31.2 µM

CC(C)CC#Cc1ccc([C@@H]2[C@H](CO)N3CCCCN(C(=O)Nc4ccccc4)C[C@@H]23)cc1
IC50: 13.1 µM

O=S(=O)(c1ccc(F)cc1)N1C[C@@H]2N[C@H](C1)C2c1ccc(/C=C/c2ccccc2)cc1 (some centres not stated)
IC50: 8.8 µM

N#Cc1cccc(-c2ccc(C3[C@H]4CNC[C@@H]3N4Cc3ccc(F)cc3)cc2)c1 (some centres not stated)
IC50: 29.4 µM

OC[C@H]1[C@@H](c2ccc(C#CC3CCCC3)cc2)[C@H]2CN(CCC(F)(F)F)CCCCN21
IC50: 9.49 µM

O=C(c1cccc(F)c1)N1CC[C@H]2[C@H](CO)Nc3ccc(-c4cccc(F)c4)cc3[C@H]21
IC50: 124 µM

Cc1cccc(-c2ccc(C3[C@@H]4CN(Cc5ccccc5F)C[C@H]3N4)cc2)c1 (some centres not stated)
IC50: 6.22 µM

O=C(C1CCCC1)N1C[C@@H]2N[C@H](C1)C2c1ccc(/C=C/c2ccccc2)cc1 (some centres not stated)
IC50: 30.1 µM

Cc1cccc(-c2ccc(C3[C@@H]4CN(C(=O)C5CCCCC5)C[C@H]3N4)cc2)c1 (some centres not stated)
IC50: 26.6 µM

N#Cc1ccc(-c2ccc([C@@H]3[C@H]4CNC[C@@H]3N4Cc3cc(F)ccc3F)cc2)cc1
IC50: 58.8 µM

N#Cc1cccc(-c2ccc(C3[C@@H]4CN(Cc5ccccc5)C[C@H]3N4)cc2)c1 (some centres not stated)
IC50: 79.6 µM

Cc1ccccc1S(=O)(=O)N1C[C@@H]2N[C@H](C1)C2c1ccc(-c2cccc(C#N)c2)cc1 (some centres not stated)
IC50: 91.2 µM

OC[C@@H]1[C@H](c2ccc(C#CC3CCCC3)cc2)[C@H]2CN(CCC(F)(F)F)CCCCN12
IC50: 26.6 µM

Cc1ccc(-c2ccc([C@@H]3[C@@H]4CN(Cc5ccccc5F)C[C@H]3N4)cc2)cc1
IC50: 4.19 µM

Cc1ccc(S(=O)(=O)N2[C@@H]3CNC[C@H]2C3c2ccc(-c3cccc(C)c3)cc2)cc1 (some centres not stated)
IC50: 32.1 µM

O=C(Nc1ccc(C(F)(F)F)cc1)N1C[C@@H]2N[C@H](C1)C2c1ccc(/C=C/c2ccccc2)cc1 (some centres not stated)
IC50: 1.98 µM and 3.86 µM

Cc1cccc(-c2ccc([C@@H]3[C@@H]4CN(C(=O)CN(C)C)C[C@H]3N4)cc2)c1
IC50: 61.5 µM

COc1ccccc1NC(=O)N1CCCCN2[C@@H](CO)[C@H](c3ccc(-c4cccc(C)c4)cc3)[C@@H]2C1
IC50: 93.9 µM

C(=C\c1ccc(C2[C@@H]3CN(Cc4ccc5c(c4)OCO5)C[C@H]2N3)cc1)/c1ccccc1 (some centres not stated)
IC50: 6.94 µM and 6.61 µM

CCCNC(=O)C[C@H]1CC[C@@H]2[C@H](COC[C@@H](O)CN2C(=O)Nc2ccc(Cl)c(Cl)c2)O1
IC50: 20.9 µM

Cc1ccc(S(=O)(=O)N2C[C@@H]3N[C@H](C2)C3c2ccc(/C=C/c3ccccc3)cc2)cc1 (some centres not stated)
IC50: 4.98 µM

O=C(NC1CCCCC1)N1C[C@@H]2N[C@H](C1)C2c1ccc(-c2ccc(F)cc2)cc1 (some centres not stated)
IC50: 59.7 µM

O=C(NC[C@H]1N[C@H](CO)[C@@H]1c1ccc(C2=CCCC2)cc1)c1ccccc1
IC50: 69.4 µM

Cc1ccccc1-c1ccc([C@H]2[C@@H](CO)N3CCCCN(C(=O)Nc4cccc(F)c4)C[C@H]23)cc1
IC50: 10.6 µM

COc1ccc(C#Cc2ccc([C@@H]3[C@H](CO)N4CCCCN(C(=O)Nc5cccc(F)c5)C[C@@H]34)cc2)cc1
IC50: 7.68 µM

COc1ccc(-c2ccc(C3[C@H]4CNC[C@@H]3N4C(=O)Nc3ccc(C(F)(F)F)cc3)cc2)cc1 (some centres not stated)
IC50: 65.7 µM and 10.6 µM

O=C(C[C@H]1CC[C@H]2[C@@H](COC[C@@H](O)CN2C(=O)Nc2ccc(C(F)(F)F)cc2)O1)NC1Cc2ccccc2C1
IC50: 16.6 µM

O=C(C[C@@H]1CC[C@@H]2[C@H](COC[C@H](O)CN2C(=O)Nc2cc(Cl)cc(Cl)c2)O1)N1CCOCC1
IC50: 20.4 µM

Cc1cccc(-c2ccc([C@H]3[C@@H](CO)N4CCCCN(CCC(F)(F)F)C[C@@H]34)cc2)c1
IC50: 50.5 µM

Cc1ccc(-c2ccc([C@@H]3[C@H](CO)N4CCCCN(S(=O)(=O)c5cccc(C)c5)C[C@@H]34)cc2)cc1
IC50: 18.2 µM

O=C(Nc1cccc(F)c1)N1CCCCN2[C@@H](CO)[C@H](c3ccc(-c4ccccc4F)cc3)[C@@H]2C1
IC50: 33.6 µM

O=C(NC[C@@H]1N[C@@H](CO)[C@H]1c1ccc(C2=CCCCC2)cc1)c1ccccc1
IC50: 65.8 µM

Cc1ccccc1-c1ccc(C2[C@@H]3CN(C(=O)c4ccc(F)cc4)C[C@H]2N3)cc1 (some centres not stated)
IC50: 64.6 µM

O=C(Nc1cccc(F)c1)N1C[C@@H]2N[C@H](C1)C2c1ccc(-c2ccc(F)cc2)cc1 (some centres not stated)
IC50: 51.8 µM

COc1ccccc1NC(=O)N1CCCCN2[C@H](CO)[C@H](c3ccc(-c4ccc(C)cc4)cc3)[C@H]2C1
IC50: 14.5 µM

Cc1ccc(-c2ccc([C@@H]3[C@@H](CO)N4CCCCN(S(=O)(=O)c5cccc(C)c5)C[C@H]34)cc2)cc1
IC50: 10.7 µM

O=S(=O)(c1ccccc1)N1C[C@@H]2N[C@H](C1)C2c1ccc(/C=C/c2ccccc2)cc1 (some centres not stated)
IC50: 8.5 µM

Fc1cccc(CN2C[C@@H]3N[C@H](C2)C3c2ccc(-c3ccccc3)cc2)c1 (some centres not stated)
IC50: 8.38 µM and 10.4 µM

COc1cccc(C#Cc2ccc3c(c2)[C@@H]2[C@@H](CCN2C(=O)c2ccccc2F)[C@@H](CO)N3C)c1
IC50: 27.7 µM

O=C(Nc1cccc(F)c1)N1CCCCN2[C@H](CO)[C@H](c3ccc(C#CC4CC4)cc3)[C@H]2C1
IC50: 47.6 µM

COc1ccccc1CN1C[C@@H]2N[C@H](C1)C2c1ccc(-c2ccccc2OC)cc1 (some centres not stated)
IC50: 35.3 µM and 38.3 µM

COc1cccc(-c2ccc(C3[C@@H]4CN(S(=O)(=O)c5ccccc5C)C[C@H]3N4)cc2)c1 (some centres not stated)
IC50: 29.1 µM

O=C(C[C@@H]1CC[C@H]2[C@@H](COC[C@@H](O)CN2C(=O)Nc2ccc(Cl)c(Cl)c2)O1)NC1CCC1
IC50: 8 µM

O=C(Nc1cccc(F)c1)N1CCCCN2[C@H](CO)[C@@H](c3ccc(-c4ccccc4F)cc3)[C@H]2C1
IC50: 29.7 µM

COc1ccc(-c2ccc(C3[C@H]4CNC[C@@H]3N4Cc3cc(OC)cc(OC)c3)cc2)cc1 (some centres not stated)
IC50: 11.1 µM

Cc1ccc(-c2ccc(C3[C@@H]4CN(S(=O)(=O)c5cccc(C)c5)C[C@H]3N4)cc2)cc1 (some centres not stated)
IC50: 8.64 µM

O=C(Nc1ccc(C(F)(F)F)cc1)N1C[C@@H]2N[C@H](C1)C2c1ccc(-c2cccc(F)c2)cc1 (some centres not stated)
IC50: 2.63 µM and 2.5 µM

Cc1ccccc1-c1ccc(C2[C@H]3CNC[C@@H]2N3Cc2ccc3c(c2)OCO3)cc1 (some centres not stated)
IC50: 27.7 µM

O=C(C[C@@H]1CC[C@H]2[C@@H](COC[C@@H](O)CN2C(=O)Nc2ccc(C(F)(F)F)cc2)O1)NCC1CCCCC1
IC50: 7.5 µM

O=C(Nc1ccc(F)cc1)N1CCCCN2[C@H](CO)[C@@H](c3ccc(-c4cccc(F)c4)cc3)[C@H]2C1
IC50: 92.2 µM

C(=C\c1ccc(C2[C@@H]3CN(Cc4cccnc4)C[C@H]2N3)cc1)/c1ccccc1 (some centres not stated)
IC50: 52.1 µM and 56.8 µM

O=C(Nc1ccccc1F)N1C[C@@H]2N[C@H](C1)C2c1ccc(/C=C/c2ccccc2)cc1 (some centres not stated)
IC50: 12.5 µM

COc1ccc(C#Cc2ccc([C@@H]3[C@H](CO)N4CCCCN(C(=O)Nc5ccc(F)cc5)C[C@@H]34)cc2)cc1
IC50: 6.67 µM

O=S(=O)(Cc1ccccc1)N1CCCCN2[C@H](CO)[C@H](c3ccc(-c4ccc(F)cc4)cc3)[C@H]2C1
IC50: 42.5 µM

CC(C)CC#Cc1ccc([C@H]2[C@H](CO)N3CCCCN(C(=O)Nc4ccccc4)C[C@@H]23)cc1
IC50: 11.1 µM

Cc1ccccc1S(=O)(=O)N1CCCCN2[C@H](CO)[C@H](c3ccc(-c4cccc(F)c4)cc3)[C@H]2C1
IC50: 11.3 µM

COc1ccccc1C#Cc1ccc2c(c1)[C@H]1[C@H](CCN1C(=O)c1ccc(F)cc1)[C@@H](CO)N2
IC50: < 0.5 µM

O=C(Nc1ccc(C(F)(F)F)cc1)N1C[C@@H]2N[C@H](C1)C2c1ccc(-c2ccccc2)cc1 (some centres not stated)
IC50: 3.18 µM and 4.52 µM

O=C(NC[C@@H]1N[C@@H](CO)[C@H]1c1ccc(C2=CCCCC2)cc1)c1ccc(F)cc1
IC50: 57.8 µM

O=C(Nc1ccccc1F)N1CCCCN2[C@@H](CO)[C@@H](c3ccc(/C=C/c4ccccc4)cc3)[C@@H]2C1
IC50: 11.5 µM

COc1ccccc1C#Cc1ccc2c(c1)[C@@H]1[C@@H](CCN1C(=O)c1ccncc1)[C@@H](CO)N2
IC50: > 120 µM (inactive)

O=C(Nc1ccc(F)cc1)N1CCCCN2[C@@H](CO)[C@@H](c3ccc(-c4cccc(F)c4)cc3)[C@@H]2C1
IC50: 13.2 µM

O=C(Nc1cccc(F)c1)N1CCCCN2[C@H](CO)[C@H](c3ccc(-c4ccccc4F)cc3)[C@H]2C1
IC50: 24.5 µM

Cc1ccccc1-c1ccc([C@H]2[C@@H](CO)N3CCCCN(C(=O)Nc4ccc(F)cc4)C[C@H]23)cc1
IC50: 27.4 µM

O=C(Nc1ccccc1)N1C[C@@H]2N[C@H](C1)[C@@H]2c1ccc(/C=C/c2ccccc2)cc1
IC50: 13 µM

C[C@@H]1CN([C@@H](C)CO)C(=O)c2cccc(NC(=O)Nc3ccc(C(F)(F)F)cc3)c2O[C@H]1CN(C)C(=O)Nc1ccc(C(F)(F)F)cc1
IC50: 22.2 µM

COc1ccc(C#Cc2ccc([C@@H]3[C@@H](CO)N4CCCCN(Cc5ccccc5F)C[C@H]34)cc2)cc1
IC50: 7.31 µM

O=C(C[C@@H]1CC[C@@H]2[C@H](COC[C@H](O)CN2C(=O)Nc2ccc(C(F)(F)F)cc2)O1)NC1Cc2ccccc2C1
IC50: 17.5 µM

CCNC(=O)C[C@@H]1CC[C@@H]2[C@H](COC[C@@H](O)CN2C(=O)Nc2ccc(C(F)(F)F)cc2)O1
IC50: 31.6 µM
